Data as given in patent US6541450B1, “Parathyroid hormone analogues for the treatment of osteoporosis” (National Research Council of Canada, priority 1994, dated 2003).
Where two headings read alike, the source gives them in different places. Where a SMILES comes first, the peptide text is derived from it. Bridges are numbered along the chain shown (N, C = ends). Where no end group is shown, it is not given here.

T1: adenylyl cyclase, ROS 17/2 cells (Rattus norvegicus, UniProt P25961)
T1 sequence (P25961 27-591): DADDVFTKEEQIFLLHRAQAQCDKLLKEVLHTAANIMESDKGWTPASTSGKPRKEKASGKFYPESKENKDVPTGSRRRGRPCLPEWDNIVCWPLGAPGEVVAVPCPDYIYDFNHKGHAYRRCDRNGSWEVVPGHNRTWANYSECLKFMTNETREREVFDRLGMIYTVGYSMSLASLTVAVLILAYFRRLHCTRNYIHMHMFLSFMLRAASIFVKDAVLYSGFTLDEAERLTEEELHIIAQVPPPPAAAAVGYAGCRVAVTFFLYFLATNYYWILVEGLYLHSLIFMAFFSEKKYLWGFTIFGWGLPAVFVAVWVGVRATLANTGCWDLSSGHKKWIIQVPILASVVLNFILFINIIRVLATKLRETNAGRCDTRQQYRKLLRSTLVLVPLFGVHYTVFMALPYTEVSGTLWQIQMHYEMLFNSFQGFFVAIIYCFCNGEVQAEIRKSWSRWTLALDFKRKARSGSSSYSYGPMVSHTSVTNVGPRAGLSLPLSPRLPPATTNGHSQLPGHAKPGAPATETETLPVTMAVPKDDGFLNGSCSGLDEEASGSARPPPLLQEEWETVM

B1: [Leu^27]cyclo(Lys^26-Asp^30)-hPTH-(1-31)-NH2 (peptide)
peptide: SVSEIQLMHNLGKHLNSMERVEWLRKLLQDV-NH2
modifications: lactam 26-30; N-terminus assumed
SMILES: CC[C@H](C)[C@H](NC(=O)[C@H](CCC(=O)O)NC(=O)[C@H](CO)NC(=O)[C@@H](NC(=O)[C@@H](N)CO)C(C)C)C(=O)N[C@@H](CCC(N)=O)C(=O)N[C@@H](CC(C)C)C(=O)N[C@@H](CCSC)C(=O)N[C@@H](Cc1c[nH]cn1)C(=O)N[C@@H](CC(N)=O)C(=O)N[C@@H](CC(C)C)C(=O)NCC(=O)N[C@@H](CCCCN)C(=O)N[C@@H](Cc1c[nH]cn1)C(=O)N[C@@H](CC(C)C)C(=O)N[C@@H](CC(N)=O)C(=O)N[C@@H](CO)C(=O)N[C@@H](CCSC)C(=O)N[C@@H](CCC(=O)O)C(=O)N[C@@H](CCCNC(=N)N)C(=O)N[C@H](C(=O)N[C@@H](CCC(=O)O)C(=O)N[C@@H](Cc1c[nH]c2ccccc12)C(=O)N[C@@H](CC(C)C)C(=O)N[C@@H](CCCNC(=N)N)C(=O)N[C@H]1CCCCNC(=O)C[C@@H](C(=O)N[C@H](C(N)=O)C(C)C)NC(=O)[C@H](CCC(N)=O)NC(=O)[C@H](CC(C)C)NC(=O)[C@H](CC(C)C)NC1=O)C(C)C

What was measured:
[1] = biological target: T1, adenylyl cyclase, ROS 17/2 cells; experiment: Adenylyl cyclase stimulation, [3H]-cyclic AMP production in ROS 17/2 cells; type: cell-based
[2] = tested on: anesthetized female Sprague-Dawley rats; experiment: Hypotensive effect, tail artery pressure in anaesthetized rats
Description: Female Sprague-Dawley rats (weighing over 290 g) were anaesthetized with intraperitoneally injected sodium pentobarbital (65 mg/kg body weight). Rectal temperature was monitored with a YS1402 thermistor (Yellow Springs Instrument Co., Inc. Yellow Springs, Ohio) and maintained between 36.0 and 38.5° C. throughout the experiment. Ear pinna temperature was also monitored using a YSi banjo thermistor. The tail artery was exposed to cannulated with a Jelco 25-gIV catheter (Johnson and Johnson Medical Inc., Arlington, Tex.) and connected to a Statham pressure transducer, the signals from which were recorded digitally with a Biopac Systems MP100 Monitor (Harvard Instruments, Saint Laurent, QC, Canada). For intravenous injection of PTH or one of its fragments, a femoral vein was also exposed. After surgery, the rat was allowed to stabilize for 8 min after which PTH or one of its fragments (dissolved in acidified saline containing 0.001 N HCl) was injected into the femoral vein or under the skin of the abdomen. Data were collected for 12 min after intravenous injection or for 22 min after subcutaneous injection.

PTH receptor = PTH receptor (rat (ROS 17/2 rat osteosarcoma cell …, UniProt P25961)); experiment: cell-based or functional assay
[3] = ROS 17/2 cells, concentration for half-maximal increase in AC activity, read-out: Adenylyl Cyclase (EC50)

Molecule	EC50 [1, 3] [nM]	also measured
CC[C@H](C)[C@H](NC(=O)[C@H](CCC(=O)O)NC(=O)[C@H](CO)NC(=O)[C@@H](NC(=O)[C@@H](N)CO)C(C)C)C(=O)N[C@@H](CCC(N)=O)C(=O)N[C@@H](CC(C)C)C(=O)N[C@@H](CCSC)C(=O)N[C@@H](Cc1c[nH]cn1)C(=O)N[C@@H](CC(N)=O)C(=O)N[C@@H](CC(C)C)C(=O)NCC(=O)N[C@@H](CCCCN)C(=O)N[C@@H](Cc1c[nH]cn1)C(=O)N[C@@H](CC(C)C)C(=O)N[C@@H](CC(N)=O)C(=O)N[C@@H](CO)C(=O)N[C@@H](CCSC)C(=O)N[C@@H](CCC(=O)O)C(=O)N[C@@H](CCCNC(=N)N)C(=O)N[C@H](C(=O)N[C@H]1CCC(=O)NCCCC[C@@H](C(=O)N[C@@H](Cc2ccc(O)cc2)C(=O)N[C@@H](CC(C)C)C(=O)N[C@@H](CCC(N)=O)C(=O)N[C@@H](CC(=O)O)C(=O)N[C@H](C(N)=O)C(C)C)NC(=O)[C@H](CCCNC(=N)N)NC(=O)[C@H](CC(C)C)NC(=O)[C@H](Cc2c[nH]c3ccccc23)NC1=O)C(C)C [[Tyr^27]cyclo(Glu^22—Lys^26)—hPTH—(1-31)-NH2] (H-SVSEIQLMHNLGKHLNSMERVEWLRKYLQDV-NH2; lactam 22-26; N-terminus assumed)	9	–
CC[C@H](C)[C@H](NC(=O)[C@H](CCC(=O)O)NC(=O)[C@H](CO)NC(=O)[C@@H](NC(=O)[C@@H](N)CO)C(C)C)C(=O)N[C@@H](CCC(N)=O)C(=O)N[C@@H](CC(C)C)C(=O)N[C@@H](CCSC)C(=O)N[C@@H](Cc1c[nH]cn1)C(=O)N[C@@H](CC(N)=O)C(=O)N[C@@H](CC(C)C)C(=O)NCC(=O)N[C@@H](CCCCN)C(=O)N[C@@H](Cc1c[nH]cn1)C(=O)N[C@@H](CC(C)C)C(=O)N[C@@H](CC(N)=O)C(=O)N[C@@H](CO)C(=O)N[C@@H](CCSC)C(=O)N[C@@H](CCC(=O)O)C(=O)N[C@@H](CCCNC(=N)N)C(=O)N[C@H](C(=O)N[C@@H](CCC(=O)O)C(=O)N[C@@H](Cc1c[nH]c2ccccc12)C(=O)N[C@@H](CC(C)C)C(=O)N[C@@H](CCCNC(=N)N)C(=O)N[C@H]1CCCCNC(=O)C[C@@H](C(=O)N[C@H](C(N)=O)C(C)C)NC(=O)[C@H](CCC(N)=O)NC(=O)[C@H](CC(C)C)NC(=O)[C@H](CC(C)C)NC1=O)C(C)C [compound 4, [Leu^27]cyclo(Lys^26-Asp^30)-hPTH-(1-31)-NH2] (H-SVSEIQLMHNLGKHLNSMERVEWLRKLLQDV-NH2; lactam 26-30; N-terminus assumed)	3	hypotensive action, in words ([2]; subcutaneous injection): enhanced hypotensive effects; EC50 ([1]; ROS cell line, read-out: EC50, AC-stimulating activity): 17 ± 3.3 nM
CC[C@H](C)[C@H](NC(=O)[C@H](CCC(=O)O)NC(=O)[C@H](CO)NC(=O)[C@@H](NC(=O)[C@@H](N)CO)C(C)C)C(=O)N[C@@H](CCC(N)=O)C(=O)N[C@@H](CC(C)C)C(=O)N[C@@H](CCSC)C(=O)N[C@@H](Cc1c[nH]cn1)C(=O)N[C@@H](CC(N)=O)C(=O)N[C@@H](CC(C)C)C(=O)NCC(=O)N[C@@H](CCCCN)C(=O)N[C@@H](Cc1c[nH]cn1)C(=O)N[C@@H](CC(C)C)C(=O)N[C@@H](CC(N)=O)C(=O)N[C@@H](CO)C(=O)N[C@@H](CCSC)C(=O)N[C@@H](CCC(=O)O)C(=O)N[C@@H](CCCN=C(N)N)C(=O)N[C@H](C(=O)N[C@H]1CCC(=O)NCCCC[C@@H](C(=O)N[C@@H](CC(C)C)C(=O)N[C@@H](CC(C)C)C(=O)N[C@@H](CCC(N)=O)C(=O)N[C@@H](CC(=O)O)C(N)=O)NC(=O)[C@H](CCCN=C(N)N)NC(=O)[C@H](CC(C)C)NC(=O)[C@H](Cc2c[nH]c3ccccc23)NC1=O)C(C)C [compound 8, [Leu^27]cyclo(Glu^22Lys^26)-hPTH-(1-30)-NH2] (H-SVSEIQLMHNLGKHLNSMERVEWLRKLLQD-NH2; lactam 22-26)	20	rate of transport of subcutaneously injected peptide to the vascular system ([2]; subcutaneous, 0.8 nmol/100 g of body weight): significantly (p<0.05) reduced rates of transport
CC[C@H](C)[C@H](NC(=O)[C@H](CCC(=O)O)NC(=O)[C@H](CO)NC(=O)[C@@H](NC(=O)[C@@H](N)CO)C(C)C)C(=O)N[C@@H](CCC(N)=O)C(=O)N[C@@H](CC(C)C)C(=O)N[C@@H](CCSC)C(=O)N[C@@H](Cc1c[nH]cn1)C(=O)N[C@@H](CC(N)=O)C(=O)N[C@@H](CC(C)C)C(=O)NCC(=O)N[C@@H](CCCCN)C(=O)N[C@@H](Cc1c[nH]cn1)C(=O)N[C@@H](CC(C)C)C(=O)N[C@@H](CC(N)=O)C(=O)N[C@@H](CO)C(=O)N[C@@H](CCSC)C(=O)N[C@@H](CCC(=O)O)C(=O)N[C@@H](CCCNC(=N)N)C(=O)N[C@H](C(=O)N[C@H]1CCC(=O)NCCCC[C@@H](C(=O)N[C@@H](CCCCN)C(=O)N[C@@H](CC(C)C)C(=O)N[C@@H](CCC(N)=O)C(=O)N[C@@H](CC(=O)O)C(=O)N[C@H](C(N)=O)C(C)C)NC(=O)[C@H](CCCNC(=N)N)NC(=O)[C@H](CC(C)C)NC(=O)[C@H](Cc2c[nH]c3ccccc23)NC1=O)C(C)C [cyclo(Glu^22—Lys^26)—hPTH—(1-31)-NH2]	17	–
CC[C@H](C)[C@H](NC(=O)[C@H](CCC(=O)O)NC(=O)[C@H](CO)NC(=O)[C@@H](NC(=O)[C@@H](N)CO)C(C)C)C(=O)N[C@@H](CCC(N)=O)C(=O)N[C@@H](CC(C)C)C(=O)N[C@@H](CCSC)C(=O)N[C@@H](Cc1c[nH]cn1)C(=O)N[C@@H](CC(N)=O)C(=O)N[C@@H](CC(C)C)C(=O)NCC(=O)N[C@@H](CCCCN)C(=O)N[C@@H](Cc1c[nH]cn1)C(=O)N[C@@H](CC(C)C)C(=O)N[C@@H](CC(N)=O)C(=O)N[C@@H](CO)C(=O)N[C@@H](CCSC)C(=O)N[C@@H](CCC(=O)O)C(=O)N[C@@H](CCCN=C(N)N)C(=O)N[C@H](C(=O)N[C@H]1CCC(=O)NCCCC[C@@H](C(=O)N[C@@H](CC(C)C)C(=O)N[C@@H](CC(C)C)C(=O)N[C@@H](CCC(N)=O)C(=O)N[C@@H](CC(=O)O)C(=O)N[C@H](C(N)=O)C(C)C)NC(=O)[C@H](CCCN=C(N)N)NC(=O)[C@H](CC(C)C)NC(=O)[C@H](Cc2c[nH]c3ccccc23)NC1=O)C(C)C [peptide 3, [Leu^27]cyclo(Glu^22-Lys^26)-hPTH-(1-31)-NH2] (H-SVSEIQLMHNLGKHLNSMERVEWLRKLLQDV-NH2; lactam 22-26)	3	bioavailability, in words ([2]; subcutaneous, 0.8 nmol/100 g, inferred from time to minimum bp): increased bioavailability
CC[C@H](C)[C@H](NC(=O)[C@H](CCC(=O)O)NC(=O)[C@H](CO)NC(=O)[C@@H](NC(=O)[C@H](CO)NC(C)=O)C(C)C)C(=O)N[C@@H](CCC(N)=O)C(=O)N[C@@H](CC(C)C)C(=O)N[C@@H](CCSC)C(=O)N[C@@H](Cc1c[nH]cn1)C(=O)N[C@@H](CC(N)=O)C(=O)N[C@@H](CC(C)C)C(=O)NCC(=O)N[C@@H](CCCCN)C(=O)N[C@@H](Cc1c[nH]cn1)C(=O)N[C@@H](CC(C)C)C(=O)N[C@@H](CC(N)=O)C(=O)N[C@@H](CO)C(=O)N[C@@H](CCSC)C(=O)N[C@@H](CCC(=O)O)C(=O)N[C@@H](CCCNC(=N)N)C(=O)N[C@H](C(=O)N[C@H]1CCC(=O)NCCCC[C@@H](C(=O)N[C@@H](CC(C)C)C(=O)N[C@@H](CC(C)C)C(=O)N[C@@H](CCC(N)=O)C(=O)N[C@@H](CC(=O)O)C(=O)N[C@H](C(N)=O)C(C)C)NC(=O)[C@H](CCCNC(=N)N)NC(=O)[C@H](CC(C)C)NC(=O)[C@H](Cc2c[nH]c3ccccc23)NC1=O)C(C)C [α-acetyl-[Leu^27]cyclo(Glu^22—Lys^26)—hPTH—(1-31)-NH2] (Ac-SVSEIQLMHNLGKHLNSMERVEWLRKLLQDV-NH2; lactam 22-26)	24	–
B1	–	adenylyl cyclase stimulation, EC50 (PTH receptor): 17 nM
SVSEIQLMHNLGKHLNSMERVEWLRKLLQDV-NH2 [[Leu^27]-hPTH-(1-31)-NH2]	–	AC activity in the ROS cell line, EC50 (PTH receptor): 11.5 nM
